6 substances from patent publication US8334255B2, “Peptide and treatment for HIV-1 infection” (Thomas Jefferson University, priority 2006, dated 2012) can be followed below.

One data set deals with H9 and MT-2 cells. Briefly: Cellular uptake and intracellular localization of FITC-tagged peptide by fluorescence microscopy. The format is cell-based. The protocol:
The peptide of amino acid sequence SEQ ID NO:2 was synthesized with a C-terminal fluoroscein isothiocyanate (FTIC) tag. The FITC tag enables fluorescence microscopy of living cells in order to evaluate cellular uptake and intracellular localization of the peptide. Cultures of H9 and MT-2 cells were grown in media as recommended by the American Tissue Culture Collection (ATCC) and each culture was treated once in culture with of the FTIC-tagged peptide of the amino acid sequence SEQ ID NO:2. The cells were then photographed in the culture dish with an inverted fluorescence microscopy at various time points. […] The intracellular distribution was both punctate and diffuse in the cytoplasm but little or no FTIC-tagged peptide was observed within the nuclei of cells. This distribution was sustained for 24-48 hours and diminished by over 50% by 72 hours post-treatment.
To highlight the position of the nucleus, H9 and MT-2 cells treated with the FTIC-tagged peptide of the amino acid sequence SEQ ID NO:2 as described above, fixed with 2% paraformaldehyde, permeabilized with 0.4% Triton X-100 and stained with the DNA selective stain 4′,6-diamidino-2-phenylindole (DAPI).

A further data set has as its system HIV-1IIIB virus. Kind of data set: Low multiplicity of infection acute infection assay in MT-2 cells, reverse transcriptase assay. The settings on record: for delay of the onset of virus production: MT-2 cells, RT assay.
The test system of data set [1] is HIV-1NL4-3 Viruses. Kind of data set: Viral infectivity assay in peripheral blood mononuclear cells, p24 Gag ELISA. To be noted: PBMCs infected with HIV-1NL4-3, MOI 0.1; p24 antigen level by ELISA. The format is cell-based. The protocol: Various truncated analogues of the peptide of amino acid sequence SEQ ID NO:36 were prepared to determine the minimal peptide necessary to inhibit viral infectivity. The compounds were tested in a viral infectivity assay in which PBMCs were infected with HIV-1NLA-3 viruses (MOI: 0.1). The amounts of virus produced were monitored by detecting the HIV-1 p24 antigen. level in the cell culture using p24 Gag ELISA (Zeptometrics).
On the technique in general: ELISA stands for enzyme-linked immunosorbent assay.

The nature of data set [2]: Physicochemical properties of the peptide (isoelectric point, solubility).
The subject of data set [3] is HIV-1NL4-3 Viruses. Briefly: Viral infectivity assay in human T lymphoblastoid H9 cell line, p24 antigen ELISA. To be noted: H9 cells, MOI 0.01, peptide 50 μM, compared to untreated cells or control peptide. The format is cell-based. The protocol:
A viral infectivity assay was performed in the presence or absence of the peptides of amino acid sequence SEQ ID NO:2 and SEQ ID NO:36, and the control peptide of amino acid sequence SEQ ID NO:35 using HIV-1NL4-3 viruses in H9 cells and assaying HIV-1 p24 antigen. The procedure was performed essentially as described by B. Yang, et al., J. Bio. Chem., 2003; 278(8), 6596-602, which describes the method as follows. H9 cells (1×10^6) are mixed with HIV-1NL4-3 viruses at a multiplicity of infection of 0.01. After incubation at 37° C. for 5 hours, the excess viruses were removed, and the cells are cultured in the presence of RPMI 1640 medium plus […] fetal bovine serum with or without the peptides at a concentration of 50 μM. Every 3-4 days the supernatants are harvested and refreshed. The effects of the peptides on viral infectivity are monitored by detecting the HIV-1 p24 antigen level in the cell culture supernatant via ELISA.

Where [4] appears, read: living H9 and MT-2 cells, single treatment.

Primed or numbered codes have the meaning given here. Ends that are not written are not given here. FITC′ = not defined here Bounds are passed on as bounds.

Consider “FTIC-tagged peptide of the amino acid sequence SEQ ID NO:2: peptide of amino acid sequence SEQ ID NO:2 synthesized with a C-terminal fluoroscein isothiocyanate (FTIC) tag (YGRKKRRQRRRGQGGSPLPRSV-{FITC′})”, for which the “intracellular localization (fixed cells, DAPI nuclear stain)” value in the data set on H9 and MT-2 cells (H9 and MT-2 cells, 24 h after a single treatment) is reported as “localized in the cytoplasm but was not present in the nucleus”. Further, the “diminution of intracellular peptide distribution” value in the data set with H9 and MT-2 cells (by 72 hours post-treatment) was “over 50%”. In the data set with H9 and MT-2 cells (setting [4]), the “time after which fluorescence within cells was detected” value is on record as 5 ninutes, the “time for which the intracellular distribution was sustained” value fell in the range of 24 to 48 h and the “time until intracellular localization was apparent in all cells” value was not above 30 min. The “peptide observed within the nuclei of cells” value with H9 and MT-2 cells (living H9 and MT-2 cells, distribution punctate and diffuse in the cytoplasm) was “little or no”.
For YGRKKRRQRRRGDLGEQHFKGLVL [SEQ ID NO:35], the “effect on virus production (in words)” value in the data set on HIV-1IIIB virus (MOI 0.003, peptide 50 μM) is “somewhat enhance virus production”; in the data set on HIV-1IIIB virus (MOI 0.01, peptide 50 μM) it was “did not inhibit virus production”; in the data set on HIV-1IIIB virus (MOI 0.03, peptide 50 μM) it was “did not inhibit virus production”; in the data set on HIV-1IIIB virus (MOI 0.1, peptide 50 μM) it was “did not inhibit virus production”.
Turning to YGRKKRRQRRRGGGSPLPRSV [SEQ ID NO: 74], the “Activity (inhibiting HIV-1NL4-3 viruses in viral infectivity assay)” value with HIV-1NL4-3 Viruses [1] was “Inactive”.
In the case of YGRKKRRQRRRGQGGSPLPRSV [SEQ ID NO:2], in data set [2], the “isoelectric point (pI)” value is 12.39 and the solubility (as a rule, the concentration that dissolves in the medium under given conditions) is approximately 1000 µg/mL.
For YGRKKRRQRRRGSNQGGSPLPRS [SEQ ID NO: 75], the “Activity (inhibiting HIV-1NL4-3 viruses in viral infectivity assay)” value with HIV-1NL4-3 Viruses [1] was “Inactive”.
As to YGRKKRRQRRRGSNQGGSPLPRSV [SEQ ID NO:36], the “effect on virus production (in words)” value with HIV-1IIIB virus (MOI 0.003, peptide 50 μM) was “did not appear to have any effect upon virus production”. In addition, the “delay of the onset of virus production” value in the data set on HIV-1IIIB virus (MOI 0.01, peptide 50 μM) lay in the range of 3 to 4 days; in the data set on HIV-1IIIB virus (MOI 0.03, peptide 50 μM), 2 to 3 days; in the data set with HIV-1IIIB virus (MOI 0.1, peptide 50 μM), 4 to 5 days. Moreover, the “effect on viral replication (HIV-1 p24 antigen in supernatant)” value with HIV-1NL4-3 Viruses [3] is given as “inhibited viral replication”.
